Source: the Kinase Knowledgebase extract (Sharma et al. 2016)

What follows are molecules tested against PIK3CB (Human) (UniProt P42338) (assay: Enzyme Assay).
Sequence of PIK3CB (Human) (P42338 whole entry, looked up): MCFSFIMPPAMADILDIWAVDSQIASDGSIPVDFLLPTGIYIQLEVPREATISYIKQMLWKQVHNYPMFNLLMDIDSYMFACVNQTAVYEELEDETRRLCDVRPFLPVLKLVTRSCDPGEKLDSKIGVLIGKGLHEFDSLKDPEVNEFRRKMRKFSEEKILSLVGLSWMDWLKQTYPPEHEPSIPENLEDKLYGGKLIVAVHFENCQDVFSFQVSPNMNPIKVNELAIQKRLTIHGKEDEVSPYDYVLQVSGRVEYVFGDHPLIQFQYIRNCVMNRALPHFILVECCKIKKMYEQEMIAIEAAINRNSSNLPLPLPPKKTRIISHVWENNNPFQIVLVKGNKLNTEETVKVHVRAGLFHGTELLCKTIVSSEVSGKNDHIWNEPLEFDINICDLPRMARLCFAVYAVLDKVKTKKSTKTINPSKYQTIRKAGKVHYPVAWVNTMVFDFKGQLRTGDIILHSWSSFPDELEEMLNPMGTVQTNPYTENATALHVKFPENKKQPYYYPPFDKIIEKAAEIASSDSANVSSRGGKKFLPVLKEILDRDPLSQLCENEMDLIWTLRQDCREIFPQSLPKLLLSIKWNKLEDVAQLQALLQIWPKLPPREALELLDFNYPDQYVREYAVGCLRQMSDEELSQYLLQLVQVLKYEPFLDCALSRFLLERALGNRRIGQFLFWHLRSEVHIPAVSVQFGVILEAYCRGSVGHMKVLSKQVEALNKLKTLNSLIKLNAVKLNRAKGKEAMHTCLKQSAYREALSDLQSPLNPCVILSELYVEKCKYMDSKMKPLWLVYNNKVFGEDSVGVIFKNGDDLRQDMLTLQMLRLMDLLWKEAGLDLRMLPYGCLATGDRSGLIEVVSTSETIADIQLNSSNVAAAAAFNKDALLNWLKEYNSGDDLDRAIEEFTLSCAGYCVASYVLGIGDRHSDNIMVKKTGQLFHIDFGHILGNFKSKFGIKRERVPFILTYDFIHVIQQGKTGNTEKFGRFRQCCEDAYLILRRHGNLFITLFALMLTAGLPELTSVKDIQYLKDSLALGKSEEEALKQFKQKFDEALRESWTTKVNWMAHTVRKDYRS

Compound	IC50
C[C@H](Nc1ncnc(N)c1C#N)c1nc2cccc(Cl)c2c(=O)n1CCN1CCN(C)CC1	0.34 µM
C[C@H](Nc1nc(N)nc(N)c1C#N)c1nc2cccc(Cl)c2c(=O)n1C[C@@H]1CCCNC1	0.079 µM
C[C@H](Nc1nc(N)nc(N)c1C#N)c1nc2cccc(Cl)c2c(=O)n1C[C@H]1CCCNC1	0.088 µM

Each molecule was assayed against PIK3CD (Human) (UniProt O00329) (assay: Enzyme Assay).
Sequence of PIK3CD (Human) (O00329 whole entry, looked up): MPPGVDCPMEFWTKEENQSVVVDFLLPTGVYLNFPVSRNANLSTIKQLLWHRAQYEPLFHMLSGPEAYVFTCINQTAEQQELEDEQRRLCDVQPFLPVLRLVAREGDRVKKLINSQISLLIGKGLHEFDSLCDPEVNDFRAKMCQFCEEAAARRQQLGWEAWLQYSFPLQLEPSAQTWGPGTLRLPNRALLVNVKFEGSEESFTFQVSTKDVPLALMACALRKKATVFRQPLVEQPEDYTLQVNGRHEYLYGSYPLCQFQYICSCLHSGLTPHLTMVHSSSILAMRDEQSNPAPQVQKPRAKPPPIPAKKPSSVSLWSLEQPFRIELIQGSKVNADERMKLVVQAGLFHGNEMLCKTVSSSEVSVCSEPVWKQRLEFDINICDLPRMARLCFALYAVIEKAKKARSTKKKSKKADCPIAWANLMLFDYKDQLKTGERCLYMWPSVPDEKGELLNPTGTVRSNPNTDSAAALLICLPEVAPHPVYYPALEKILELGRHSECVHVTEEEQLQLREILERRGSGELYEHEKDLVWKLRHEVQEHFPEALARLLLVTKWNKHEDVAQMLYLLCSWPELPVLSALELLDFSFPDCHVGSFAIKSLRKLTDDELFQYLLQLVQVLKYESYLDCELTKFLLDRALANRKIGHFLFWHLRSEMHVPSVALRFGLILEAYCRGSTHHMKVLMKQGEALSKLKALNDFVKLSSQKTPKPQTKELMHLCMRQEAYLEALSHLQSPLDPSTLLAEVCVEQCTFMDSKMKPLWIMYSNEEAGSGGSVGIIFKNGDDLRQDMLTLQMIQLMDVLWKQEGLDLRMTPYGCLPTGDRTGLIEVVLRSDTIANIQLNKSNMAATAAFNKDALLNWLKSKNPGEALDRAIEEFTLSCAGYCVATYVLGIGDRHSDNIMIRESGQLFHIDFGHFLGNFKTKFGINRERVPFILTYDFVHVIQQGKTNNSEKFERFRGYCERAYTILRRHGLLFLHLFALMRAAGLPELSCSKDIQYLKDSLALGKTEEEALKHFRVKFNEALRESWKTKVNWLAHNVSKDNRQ

Compound	IC50
C[C@H](Nc1ncnc(N)c1C#N)c1nc2cccc(Cl)c2c(=O)n1CCN1CCN(C)CC1	0.011 µM
C[C@H](Nc1nc(N)nc(N)c1C#N)c1nc2cccc(Cl)c2c(=O)n1C[C@@H]1CCCNC1	0.003 µM
C[C@H](Nc1nc(N)nc(N)c1C#N)c1nc2cccc(Cl)c2c(=O)n1C[C@H]1CCCNC1	0.002 µM

These molecules were tested against PIK3CG (human) (UniProt P48736) (assay: Enzyme Assay).
Sequence of PIK3CG (human) (P48736 whole entry, looked up): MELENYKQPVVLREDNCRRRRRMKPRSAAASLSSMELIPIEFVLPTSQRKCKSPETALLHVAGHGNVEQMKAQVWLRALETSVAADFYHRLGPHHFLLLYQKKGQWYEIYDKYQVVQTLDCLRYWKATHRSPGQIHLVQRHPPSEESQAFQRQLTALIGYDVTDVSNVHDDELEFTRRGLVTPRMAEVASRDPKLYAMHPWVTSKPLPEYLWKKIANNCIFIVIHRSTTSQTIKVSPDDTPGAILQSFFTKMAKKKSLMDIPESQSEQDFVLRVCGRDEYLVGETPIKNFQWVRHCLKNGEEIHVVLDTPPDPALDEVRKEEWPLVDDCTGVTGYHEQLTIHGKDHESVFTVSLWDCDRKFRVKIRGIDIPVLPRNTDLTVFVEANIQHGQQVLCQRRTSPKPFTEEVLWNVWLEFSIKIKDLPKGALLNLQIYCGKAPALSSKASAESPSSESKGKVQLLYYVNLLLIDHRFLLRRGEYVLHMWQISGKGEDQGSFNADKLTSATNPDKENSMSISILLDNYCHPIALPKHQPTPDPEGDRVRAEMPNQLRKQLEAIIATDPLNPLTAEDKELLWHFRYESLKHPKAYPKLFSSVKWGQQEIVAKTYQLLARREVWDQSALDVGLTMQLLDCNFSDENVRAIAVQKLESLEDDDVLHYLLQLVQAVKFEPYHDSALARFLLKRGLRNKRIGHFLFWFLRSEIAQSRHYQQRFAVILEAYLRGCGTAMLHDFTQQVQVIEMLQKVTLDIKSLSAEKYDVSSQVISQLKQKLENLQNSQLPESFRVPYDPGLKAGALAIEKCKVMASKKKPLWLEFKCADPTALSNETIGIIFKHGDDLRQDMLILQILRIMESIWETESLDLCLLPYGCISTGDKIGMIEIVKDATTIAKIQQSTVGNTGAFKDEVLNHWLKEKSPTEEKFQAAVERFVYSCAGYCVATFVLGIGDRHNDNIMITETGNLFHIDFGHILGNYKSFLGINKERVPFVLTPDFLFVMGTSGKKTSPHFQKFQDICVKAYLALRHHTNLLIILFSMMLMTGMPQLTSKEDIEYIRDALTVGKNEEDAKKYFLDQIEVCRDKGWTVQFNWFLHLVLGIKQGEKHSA

Compound	IC50
C[C@H](Nc1ncnc(N)c1C#N)c1nc2cccc(Cl)c2c(=O)n1CC1CCCN1 (stereo not given in full)	≥ 10 µM
CC(CCN)n1c([C@H](C)Nc2ncnc(N)c2C#N)nc2cccc(Cl)c2c1=O (stereo not given in full)	≥ 10 µM
CC[C@H](Nc1ncnc(N)c1C#N)c1nc2cccc(Cl)c2c(=O)n1CCCN	≥ 10 µM
COCCCn1c([C@H](C)Nc2ncnc(N)c2C#N)nc2c(Cl)ccc(Cl)c2c1=O	> 10 µM
C[C@H](NC(=O)c1nccnc1N)c1nc2cccc(Cl)c2c(=O)n1CCCN	≥ 10 µM
NCCCn1c([C@@H](Nc2ncnn3ccnc23)C2CC2)nc2cccc(Cl)c2c1=O	≥ 10 µM
C[C@H](Nc1ncnc(N)c1C#N)c1nc2cccc(Cl)c2c(=O)n1CCCCN	≥ 10 µM
CC(C)C[C@H](Nc1ncnc(N)c1C#N)c1nc2cccc(Cl)c2c(=O)n1CCCN	≥ 10 µM
C[C@H](Nc1ncnc2[nH]cnc12)c1nc2cccc(Cl)c2c(=O)n1CCCN1CCOCC1	≥ 10 µM
C[C@H](Nc1ncnc(N)c1C#N)c1nc2cccc(Cl)c2c(=O)n1CCN	≥ 10 µM
C[C@H](Nc1ncnc(N)c1C#N)c1nc2cccc(Cl)c2c(=O)n1CCCN(C)C	≥ 10 µM
C[C@H](Nc1ncnc(N)c1C#N)c1nc2cccc(Cl)c2c(=O)n1CCCN1CCN(C)CC1	≥ 10 µM
C[C@H](Nc1nc(N)nc(N)c1C#N)c1nc2cccc(Cl)c2c(=O)n1CCN1CCCC1	≥ 10 µM
C[C@H](Nc1ncnn2ccnc12)c1nc2cccc(Cl)c2c(=O)n1CCCN	≥ 10 µM
C[C@H](Nc1ncnc(N)c1C#N)c1nc2cccc(Cl)c2c(=O)n1CCN1CCN(C)CC1	≥ 10 µM
C[C@H](Nc1ncnc(N)c1C#N)c1nc2cccc(Cl)c2c(=O)n1CC1CCNCC1	≥ 10 µM
Cc1cccc2nc([C@H](C)Nc3ncnc(N)c3C#N)n(CCCN)c(=O)c12	≥ 10 µM
COCCCn1c([C@H](C)Nc2ncnc(N)c2C#N)nc2c(F)ccc(F)c2c1=O	≥ 10 µM
CC(CN)n1c([C@H](C)Nc2ncnc(N)c2C#N)nc2cccc(Cl)c2c1=O (stereo not given in full)	≥ 10 µM
C[C@H](Nc1ncnc(N)c1Cl)c1nc2cccc(Cl)c2c(=O)n1CCCN	≥ 10 µM
C[C@H](Nc1ncnc(N)c1C#N)c1nc2cccc(Cl)c2c(=O)n1C[C@@H](O)CO	≥ 10 µM
N#Cc1c(N)ncnc1N[C@H](c1nc2cccc(Cl)c2c(=O)n1CCCN)C1CC1	≥ 10 µM

Compound	IC50
C[C@H](Nc1nc(N)nc(N)c1C#N)c1nc2cccc(Cl)c2c(=O)n1C[C@@H]1CCCNC1	1.3 µM
CC(CN)Cn1c([C@H](C)Nc2ncnc(N)c2C#N)nc2cccc(Cl)c2c1=O (stereo not given in full)	≥ 10 µM
Cc1ncnc(N[C@@H](C)c2nc3cccc(Cl)c3c(=O)n2CCCN)c1C#N	≥ 10 µM
C[C@H](Nc1ncnc(N)c1C#N)c1nc2cccc(Cl)c2c(=O)n1CC1CCCNC1 (stereo not given in full)	≥ 10 µM
C[C@H](Nc1nc(N)nc(N)c1C#N)c1nc2cccc(Cl)c2c(=O)n1C[C@H]1CCCNC1	3.2 µM
C[C@H](Nc1ncnc(N)c1C#N)c1nc2cccc(Cl)c2c(=O)n1CCCNCc1ccccc1	≥ 10 µM
C[C@H](Nc1ncnc(N)c1C#N)c1nc2cccc(Cl)c2c(=O)n1N(CCN)Cc1ccccc1	≥ 10 µM
C[C@H](Nc1ncnc(N)c1C#N)c1nc2cccc(Cl)c2c(=O)n1CC1CCNC1 (stereo not given in full)	≥ 10 µM
C[C@H](Nc1ncnc(N)c1C#N)c1nc2cccc(Cl)c2c(=O)n1CCC(C)(C)N	≥ 10 µM
Nc1nc(N)c(Cl)c(N[C@H](c2nc3c(Cl)ccc(Cl)c3c(=O)n2[C@H]2C[C@@H](O)C2)C2CC2)n1	≥ 10 µM
C[C@H](Nc1ncnc(N)c1C#N)c1nc2cccc(Cl)c2c(=O)n1CC1CCCCN1 (stereo not given in full)	≥ 10 µM
C[C@H](Nc1nc(N)nc(N)c1Cl)c1nc2cccc(Cl)c2c(=O)n1CCCN	≥ 10 µM
C[C@H](Nc1ncnc(N)c1C#N)c1nc2cccc(Cl)c2c(=O)n1CC1CNCCO1 (stereo not given in full)	≥ 10 µM
C[C@H](Nc1ncnc(N)c1C#N)c1nc2cccc(Cl)c2c(=O)n1[C@H]1C[C@H](N)C1	≥ 10 µM
C[C@H](Nc1ncnc(N)c1C#N)c1nc2cccc(Cl)c2c(=O)n1CCCN1CCCCC1	≥ 10 µM
C[C@H](Nc1ncnc2scnc12)c1nc2cccc(Cl)c2c(=O)n1CCC(C)(C)N	≥ 10 µM
NCCCn1c([C@@H](Nc2nc(N)nc(N)c2Cl)C2CC2)nc2cccc(Cl)c2c1=O	≥ 10 µM
C[C@H](Nc1ncnc(N)c1C#N)c1nc2cccc(Cl)c2c(=O)n1N(C)CCN	≥ 10 µM
N#Cc1c(N)nc(N)nc1N[C@@H](c1ccccc1)c1nc2cccc(Cl)c2c(=O)n1CCCN	≥ 10 µM
CNCCCn1c([C@H](C)Nc2ncnc(N)c2C#N)nc2cccc(Cl)c2c1=O	≥ 10 µM
C[C@H](Nc1ncnc(N)c1C#N)c1nc2cccc(Cl)c2c(=O)n1CCN1CCCC1	≥ 10 µM
C[C@H](Nc1nc(N)nc(N)c1C#N)c1nc2cccc(Cl)c2c(=O)n1N(CCN)Cc1ccccc1	≥ 10 µM
